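48-hour exposure; five concentrations; linearly interpolated endpoints. TGI: total growth inhibition.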
Assays:
Assay in all cases: NCI-60 cell line screen, 48 h
[1] = tested on: ACHN renal
[2] = tested on: 786-0 renal
[3] = tested on: T-47D breast
[4] = tested on: SW-620 colon
[5] = tested on: HT29 colon
[6] = tested on: HS 578T breast
[7] = tested on: NCI-H460 lung
[8] = tested on: PC-3 prostate
[9] = tested on: RXF 393 renal
[10] = tested on: SF-268 CNS
[11] = tested on: NCI-H522 lung
[12] = tested on: LOX IMVI melanoma
[13] = tested on: HOP-92 NSCLC

SMILES | TGI [1] | TGI [2] | TGI [3] | TGI [4] | TGI [5] | TGI [6] | TGI [7] | TGI [8] | TGI [9] | TGI [10] | TGI [11] | TGI [12] | TGI [13]
COC(=O)c1ccc(/C=C2\Oc3ccccc3C2=O)cc1 | > 100 µM | > 100 µM | > 100 µM | > 100 µM | > 100 µM | > 100 µM | > 100 µM | > 100 µM | > 100 µM | > 100 µM | > 100 µM | – | –
[N-]=[N+]=NC(c1cn(C2CC(O)C(CO)O2)c(=O)[nH]c1=O)C(Br)Br (stereo unspecified) | > 100 µM | > 100 µM | – | > 100 µM | > 100 µM | – | > 100 µM | – | > 100 µM | – | > 100 µM | > 100 µM | > 100 µM
O=C(/C=C/c1ccccc1)CSc1ncn[nH]1 | > 100 µM | > 100 µM | – | > 100 µM | > 100 µM | – | > 100 µM | > 100 µM | > 100 µM | > 100 µM | > 100 µM | – | –
CCOC(=O)c1[nH]c(-c2[nH]c(-c3[nH]c(-c4[nH]c(C(=O)OCC)c(C)c4C(=O)OCC)c(C(=O)OCC)c3C)c(C)c2C(=O)OCC)c(C(=O)OCC)c1C | > 100 µM | > 100 µM | > 100 µM | > 100 µM | > 100 µM | > 100 µM | > 100 µM | > 100 µM | > 100 µM | > 100 µM | > 100 µM | > 100 µM | –
COC(=O)CCC1=C(CC(=O)OC)C(C)(OC)N=C1NC(=O)OCc1ccccc1 (stereo unspecified) | > 100 µM | > 100 µM | > 100 µM | > 100 µM | > 100 µM | – | > 100 µM | > 100 µM | > 100 µM | > 100 µM | > 100 µM | > 100 µM | –
O=CNNC(=O)Nc1cccc2ccccc12 | > 100 µM | > 100 µM | > 100 µM | > 100 µM | > 100 µM | > 100 µM | > 100 µM | – | > 100 µM | > 100 µM | – | – | –
c1ccc(C(NCC2CCO2)(c2ccccc2)c2ccccc2)cc1 (stereo unspecified) | 29 µM | 41.6 µM | – | 44.4 µM | – | – | 33.9 µM | 31.6 µM | 35 µM | – | 28.1 µM | 95.5 µM | 32.8 µM
CN(C)CCNC(=O)c1ccc(NCCCN(C)CCCNc2ccc(C(=O)NCCN(C)C)c3[nH]c4ccccc4c(=O)c23)c2c(=O)c3ccccc3[nH]c12 | 1.71 µM | 0.312 µM | 1.85 µM | – | 0.236 µM | – | 0.12 µM | 0.331 µM | 1.15 µM | 0.271 µM | 0.143 µM | 0.179 µM | 3.82 µM
CCCCCCCCCCCCCCCCNC(=O)C(=O)/C=C(\O)c1ccc(C)cc1 | > 10 µM | > 10 µM | > 10 µM | > 10 µM | > 10 µM | > 10 µM | > 10 µM | > 10 µM | > 10 µM | > 10 µM | > 10 µM | > 10 µM | –
CC(=O)OC12C3C4C1C1C2C3C41OC(C)=O (stereo unspecified) | > 100 µM | > 100 µM | > 100 µM | > 100 µM | > 100 µM | – | > 100 µM | > 100 µM | > 100 µM | > 100 µM | > 100 µM | > 100 µM | > 100 µM
CN(C)c1ccc(C=NCC2CCCN3CCCCC23)cc1 (stereo unspecified) | > 100 µM | > 100 µM | – | – | – | > 100 µM | > 100 µM | > 100 µM | > 100 µM | > 100 µM | > 100 µM | > 100 µM | –
N#CN/C(N)=N/C/N=C(\N)NC#N | > 100 µM | 60.8 µM | – | 36 µM | > 100 µM | – | > 100 µM | – | > 100 µM | > 100 µM | > 100 µM | – | > 100 µM
CN1CN(c2ccccc2)C2(CCN(CC(C)(c3ccc(F)cc3)C3OCCCO3)CC2)C1=O (stereo unspecified) | 49.2 µM | 43.1 µM | 56.2 µM | 43.7 µM | 27.3 µM | – | – | 34.7 µM | 39.5 µM | 44.9 µM | 33.6 µM | 31.8 µM | –
COc1ccc(C(=O)O[C@H]2[C@@H]3C=CO[C@@H](OC4OC(CO)C(O)C(O)C4O)[C@@H]3[C@@]3(CO)O[C@@H]23)cc1O (stereo partly specified) | > 100 µM | > 100 µM | – | > 100 µM | > 100 µM | – | > 100 µM | – | > 100 µM | > 100 µM | > 100 µM | > 100 µM | > 100 µM
Cc1cnc2sn(-c3ccc([N+](=O)[O-])cc3)c(=O)c2c1 | > 100 µM | > 100 µM | > 100 µM | > 100 µM | > 100 µM | > 100 µM | > 100 µM | > 100 µM | – | > 100 µM | > 100 µM | > 100 µM | > 100 µM
CCC1(N=[N+]=[N-])C(=O)c2ccccc2N(C)C1=O (stereo unspecified) | > 100 µM | > 100 µM | – | > 100 µM | > 100 µM | – | > 100 µM | – | – | > 100 µM | > 100 µM | > 100 µM | > 100 µM
CO/N=C(/C)c1cccc(Nc2nc3ccccc3c3[nH]c4ccccc4c23)c1 | 12.8 µM | 21.5 µM | 6.9 µM | 27.5 µM | 11.2 µM | 35.8 µM | 11.3 µM | 22.3 µM | – | 25.7 µM | 9.61 µM | 25 µM | –
Cc1c2ccncc2cc2c1[nH]c1ccccc12 | – | – | – | 4.68 µM | 31.5 µM | – | 5.77 µM | – | 7.35 µM | 32.3 µM | 18.9 µM | 7.35 µM | 15.2 µM
O=C(NCCN1CCOCC1)c1cn2c(ccc3sc4ccccc4c(=O)c32)n1 | > 100 µM | 40 µM | – | 25.3 µM | 25.6 µM | 47.3 µM | 18.3 µM | > 100 µM | > 100 µM | > 100 µM | > 100 µM | 47.4 µM | > 100 µM
COC(=O)C1Cc2cc3c(cc2C1=O)CCCC3 (stereo unspecified) | > 100 µM | > 100 µM | > 100 µM | > 100 µM | > 100 µM | > 100 µM | > 100 µM | > 100 µM | – | > 100 µM | > 100 µM | > 100 µM | –

Reference: PubChem BioAssay (NCI)
